Test results taken from the NIST ThermoML archive (doi:10.1021/acs.jced.9b00362).
± gives the expanded uncertainty stated by the source.

Tests used:
[1] = Crystal; DSC
[2] = Molar enthalpy of transition or fusion; details: Crystal; DSC

Q: Which Triple point temperature [1] does the source give for O=P(O)(O)c1ccccc1 [phenylphosphonic acid] here?
A: The Triple point temperature was 437.53 ± 0.93 K.

Q: What about the “Molar enthalpy of transition or fusion” value [2] of the same compound?
A: The value was 5.72 ± 0.502 kcal/mol.
